{
  "source": "patent US20250387428A1",
  "about": "“PETROLATUM-BASED PHMB COMPOSITIONS AND METHODS FOR THE TREATMENT OF INFLAMMATORY SKIN DISEASE” (priority 2024, published 2025)",
  "tested_on": "skin of albino New Zealand White rabbits",
  "assay": "Rabbit skin irritation, Primary Irritation Index",
  "details": "sulfate",
  "protocol": "Within 24 hours to 4 hours before test application, the backs of female albino New Zealand White rabbits were clipped free of hair, exposing 2 test and 2 control areas on each side of the spine with a size of approximately 15 cm×15 cm. The two test sites are located on the left cranial section and the right caudal section of the dorsal region. The two control sites are located on the left caudal and right cranial section of the dorsal region. FIG. 4 depicts the arrangement of test and control sites. The exposed skin is wiped with alcohol and dried. Rabbits of acceptable skin quality were selected and used for testing.\nA 25×25 mm gauze patch saturated with 0.5 mL of 0.9% NaCl is used for the control and applied to the clipped control sites. The patches are secured using hypoallergenic, waterproof, surgical tape over the test and control sites. The animal's trunk is securely wrapped so as to maintain the position of the patches. Patches are left applied for a minimum of four hours.\nAfter patch removal, the test and control sites were then scored for erythema and edema at 1, 24, 48 and 72 hours after patch removal. Only the 24, 48, and 72 hour observations were scored and used for calculations. If no response was expected, testing was conducted using three animals per test article. If irritation was anticipated, one animal was tested initially. If the first animal received a score of 2 or less for either erythema or edema, 2 additional rabbits were used to conclude the test.\nThis total was divided by the total number of observations. The same was done for the control sites. […] These scores for each animal were added and divided by the total number of animals to give the Primary Irritation Index. […] For any response, the Maximum Irritation Response, the time of onset of the response and the time of maximum response was recorded.\nTo positively validate the test, 10% sodium dodecyl sulfate (SDS), which is a known dermal irritant, in petroleum jelly was applied to a 2.5 cm×2.5 cm gauze patch. As a negative control, 0.5 mL of 0.9% NaCl was applied to a 2.5 cm×2.5 cm gauze patch. A Primary Irritation Index in the moderate to severe range is considered a positive result. The test system and methods utilized were the same as described above.",
  "key": {"[1]": {"details": "per rabbit, test sites, 24, 48 and 72 hour observations after patch removal, patch at least four hours"}},
  "note": "Several values for one entry are separate records, joined by “and”; a condition that tells them apart may be missing. Identical values can stand only once. Entries after “also recorded” stand apart in the source; their conditions may differ.",
  "data": [
    {"compound": "CCCCCCCCCCCCOS(=O)(=O)[O-].[Na+]", "note": "[10% SDS, sodium dodecyl sulfate]", "values": [
      {"measurement": "Total Score Average", "setting": "per rabbit (irritation index for each animal)", "value": "Total Score Average = 6.6; also recorded: Total Score Average = 7.3; also recorded: Total Score Average = 5.3"},
      {"measurement": "ED (edema) score total", "setting": "[1]", "value": "19 and 21 and 14"},
      {"measurement": "ER (erythema) score total", "setting": "[1]", "value": "21 and 23 and 18"},
      {"measurement": "ER + ED = Total", "setting": "per rabbit, test sites, 24, 48 and 72 hour observations", "value": "40 and 44 and 32"}
    ]}
  ]
}
